Test results published in patent publication US4699928A, “Fluoroallylamine derivatives” (Merrell Dow Pharmaceuticals Inc., priority 1986, dated 1987).

How the values were obtained:
[1] = test system: heart rate response to p-tyramine; assay: Cheese effect: potentiation of response to intraduodenal p-tyramine, anaesthetized rats; assay type: in vivo, male Sprague-Dawley rats; conditions: 18 h, p-tyramine i.d.
Description: (§1) The following test procedures can be employed to assess the potential of a compound of Formula I for producing the "cheese effect": […]
(§2) Eighteen hours later the animals are anaesthetized with pentobarbitone (60 mg/kg i.p.), in some instances pithed, and in all cases set up for recording heart rate and blood pressure by standard techniques.

[2] = test system: MAO; assay: Inhibition of MAO in vitro, partially purified rat brain mitochondria, 14C p-tyramine substrate; assay type: biochemical; conditions: tested as hydrochloride salt
Description: Inhibition of MAO--In vitro testing
(A) The ability of a compound of Formula I to inhibit MAO can be determined in vitro by the method of A. Christmas et al., Br. J. Pharmacol., 45, 490 (1972) in partially purified mitochondria from rat brain using ^14 C p-tyramine as the substrate. The MAO inhibitory activity of a compound is expressed as the "IC50 " value, which is the molar concentration required to produce 50% inhibition of the enzyme.

[3] = test system: MAO-B; assay: Inhibition of MAO ex vivo, phenethylamine as substrate (MAO-B); assay type: in vivo, male Sprague-Dawley rats; conditions: for % Inhibition, Brain (2) / % Inhibition, Duodenum (2) / % Inhibition, Heart (2) / % Inhibition, Liver (2): 18 h, 14C phenethylamine
Description: (§3) The ability of a compound of Formula I to inhibit MAO can be determined ex vivo by the following procedure:
(§4) The test compound is administered orally (p.o.) to 300-350 g male Sprague-Dawley rats (Charles River, France) and the animals are killed 18 hours after treatment. The brain, heart, liver and/or duodenum is removed and either a crude homogenate or a mitochondrial fraction, described in Example 5, Part (A), is prepared. MAO activity is determined in the homogenates using ^14 C p-tyramine, as the substrate. Table III gives the results of the testing of (Z)-2-(2',4'-dichlorophenoxy)methyl-3-fluoroallylamine according to the above described procedure. Selectivity can be determined by repeating the above-described test using either ^14 C […] (for MAO-A) or ^14 C phenethylamine (for MAO-B) as the substrate for determining the percentage inhibition.

[4] = test system: MAO-A; assay: Inhibition of MAO-A ex vivo; assay type: in vivo, male Sprague-Dawley rats; conditions: p.o.; 1080 min
Description: as §3, §4

[5] = test system: MAO; assay: Time-dependent kinetics and irreversibility of MAO inhibition, rat brain mitochondria, 14C p-tyramine; assay type: biochemical
Description: (B) The compounds of Formula I can be tested to determine whether or not the MAO inhibition follows time-dependent kinetics by the procedure described below:
(§5) Mitochondria are prepared from rat brain by homogenation in phosphate buffer (0.1 M, pH 7.2) followed by differential centrifugation. The mitochondria are suspended in the same buffer, the test compound is added at the desired concentration, and the system is incubated. At different time intervals, aliquots are taken and MAO activity is measured using ^14 C p-tyramine (a mixed substrate) as the substrate (See A. Christmas et al., supra).

[6] = test system: MAO-B versus MAO-A; assay: Selectivity of inhibition of MAO-B versus MAO-A in vitro (14C phenethylamine / 14C 5-hydroxytryptamine); assay type: biochemical; conditions: rat, brain mitochondria
Description: as §5
(C) The selectivity of a compound of Formula I with respect to inhibition of MAO-A and MAO-B can be determined by repeating the procedure of Part B and measuring the MAO activity using ^14 C 5-hydroxytryptamine (a preferred substrate for MAO-A) and ^14 C phenethylamine (a preferred substrate for MAO-B) as the substrate.

[7] = test system: heart rate response to p-tyramine; assay: Cheese effect: potentiation of response to intravenous p-tyramine, pithed rats; assay type: in vivo, male Sprague-Dawley rats; conditions: for Potentiation of heart rate response to p-tyramine: 18 h, p-tyramine i.v.
Description: as §1, §2

[8] = test system: brain monoamines and their metabolites; assay: Inhibition of MAO in vivo: brain monoamines and their metabolites (HPLC); design: species or system male Sprague-Dawley rats; conditions: for DOPAC, brain / HVA, brain / 5HIAA, brain / NE, brain / 5-HT, brain / DA (dopamine), brain: 18 h, ± S.E.M.; for DOPAC, brain: control 80 ± 3; for HVA, brain: control 81 ± 3; for 5HIAA, brain: control 347 ± 8; for NE, brain: control 369 ± 18; for 5-HT, brain: control 1156 ± 52; for DA (dopamine), brain: control 840 ± 27
Description: The ability of a compound of Formula I to inhibit MAO can be determined in vivo using brain and heart samples obtained from the ex vivo study reported in Example 9. Monoamines and their deaminated metabolites were determined by HPLC with electrochemical detection by the method of J. Wagner et al, J. Neurochem. 38 1241-1254.
When (Z)-2-(2',4'-dichlorophenoxy)methyl-3-fluoroallylamine is tested according to the above-described procedure, the results given in Tables IV and V are obtained. In these tables the following abbreviations are used: […]

NC/C(=C/F)COc1ccc(Cl)cc1Cl [(z)-2-(2',4'-dichlorophenoxy)methyl-3-fluoroallylamine]
Potentiation of heart rate response to p-tyramine ([1]; 5 mg/kg by mouth): 1.5 fold
Potentiation of heart rate response to p-tyramine ([1]; 10 mg/kg by mouth): 2.4 fold
Potentiation of heart rate response to p-tyramine ([1]; 25 mg/kg by mouth): 2.0 fold
IC50 [2]: 150 nM
% Inhibition, Brain (2) ([3]; 1 mg/kg po): 85%
% Inhibition, Duodenum (2) ([3]; 1 mg/kg po): 73%
% Inhibition, Heart (2) ([3]; 1 mg/kg po): 40%
% Inhibition, Liver (2) ([3]; 1 mg/kg po): 57%
% Inhibition, Brain (2) ([3]; 2.5 mg/kg po): 90%
% Inhibition, Duodenum (2) ([3]; 2.5 mg/kg po): 82%
% Inhibition, Heart (2) ([3]; 2.5 mg/kg po): 31%
% Inhibition, Liver (2) ([3]; 2.5 mg/kg po): 67%
% Inhibition, Brain (2) ([3]; 5 mg/kg po): 93%
% Inhibition, Duodenum (2) ([3]; 5 mg/kg po): 95%
% Inhibition, Heart (2) ([3]; 5 mg/kg po): 40%
% Inhibition, Liver (2) ([3]; 5 mg/kg po): 89%
% Inhibition, Brain (2) ([3]; 10 mg/kg po): 96%
% Inhibition, Duodenum (2) ([3]; 10 mg/kg po): 96%
% Inhibition, Heart (2) ([3]; 10 mg/kg po): 40%
% Inhibition, Liver (2) ([3]; 10 mg/kg po): 90%
% Inhibition, Brain (2) ([3]; 25 mg/kg po): 98%
% Inhibition, Duodenum (2) ([3]; 25 mg/kg po): 98%
% Inhibition, Heart (2) ([3]; 25 mg/kg po): 64%
% Inhibition, Liver (2) ([3]; 25 mg/kg po): 95%
preferential inhibition of MAO-B in the four tissues ([3]; at the dose levels tested (1-25 mg/kg po)): preferential inhibition of MAO-B
inhibition of brain MAO-B ([3]; doses as low as 1 mg/kg p.o.): greater than 80%
dose needed to inhibit MAO-A activity by more than 50% [4]: greater than 5 mg/kg
MAO inhibitory activity versus time of incubation ([5]; 14C p-tyramine): increased as a function of time of incubation
irreversibility of MAO inhibition ([5]; dialysis against phosphate buffer (24 hours)): irreversible
initial rate of decrease of activity ([5]; versus concentration of inhibitor): increased with increasing concentration of inhibitor
Ratio B:A (inhibitory activity against MAO-B versus MAO-A) [6]: 200
Potentiation of heart rate response to p-tyramine ([7]; 10 mg/kg by mouth, in words): none
cardiovascular responses to tyramine injected intravenously, in words ([7]; 10 mg/kg p.o. 18 h prior to testing): affected to only a small extent
Potentiation of heart rate response to p-tyramine ([7]; 25 mg/kg by mouth): 2.8 fold
potentiation of tyramine ([7]; 25 mg/kg, two experiments): 2-3 fold
DOPAC, brain ([8]; 1 mg/kg p.o.): 75 ± 11 ng/g
HVA, brain ([8]; 1 mg/kg p.o.): 94 ± 15 ng/g
5HIAA, brain ([8]; 1 mg/kg p.o.): 371 ± 19 ng/g
NE, brain ([8]; 1 mg/kg p.o.): 386 ± 18 ng/g
5-HT, brain ([8]; 1 mg/kg p.o.): 1218 ± 66 ng/g
DA (dopamine), brain ([8]; 1 mg/kg p.o., p <0.05): 945 ± 35 ng/g
DOPAC, brain ([8]; 2.5 mg/kg p.o.): 70 ± 6 ng/g
HVA, brain ([8]; 2.5 mg/kg p.o.): 75 ± 7 ng/g
5HIAA, brain ([8]; 2.5 mg/kg p.o.): 337 ± 15 ng/g
NE, brain ([8]; 2.5 mg/kg p.o.): 409 ± 4 ng/g
DA (dopamine), brain ([8]; 2.5 mg/kg p.o.): 896 ± 31 ng/g
5-HT, brain ([8]; 2.5 mg/kg p.o.): 1119 ± 64 ng/g
HVA, brain ([8]; 5 mg/kg p.o.): 83 ± 7.2 ng/g
NE, brain ([8]; 5 mg/kg p.o.): 415 ± 18 ng/g
5-HT, brain ([8]; 5 mg/kg p.o.): 1340 ± 116 ng/g
DOPAC, brain ([8]; 5 mg/kg p.o., p <0.01): 65 ± 3 ng/g
DA (dopamine), brain ([8]; 5 mg/kg p.o., p <0.02): 943 ± 21 ng/g
5HIAA, brain ([8]; 5 mg/kg p.o., p <0.05): 379 ± 10 ng/g
5HIAA, brain ([8]; 10 mg/kg p.o.): 343 ± 14 ng/g
DA (dopamine), brain ([8]; 10 mg/kg p.o.): 875 ± 16 ng/g
5-HT, brain ([8]; 10 mg/kg p.o.): 1297 ± 100 ng/g
HVA, brain ([8]; 10 mg/kg p.o., p <0.02): 53 ± 10 ng/g
NE, brain ([8]; 10 mg/kg p.o., p <0.02): 439 ± 15 ng/g
5-HT, in words ([8]; 25 mg/kg dose): Significant increases
HVA, brain ([8]; 25 mg/kg p.o.): 75 ± 8 ng/g
NE, brain ([8]; 25 mg/kg p.o., p <0.001): 496 ± 12 ng/g
DA (dopamine), brain ([8]; 25 mg/kg p.o., p <0.001): 1087 ± 29 ng/g
5-HT, brain ([8]; 25 mg/kg p.o., p <0.001): 1623 ± 48 ng/g
5HIAA, brain ([8]; 25 mg/kg p.o., p <0.005): 404 ± 12 ng/g
DOPAC, brain ([8]; 25 mg/kg p.o., p <0.01): 54 ± 6 ng/g
Norepinephrine (NE) concentrations, in words ([8]; 10 and 25 mg/kg dose): increased significantly
dihydroxyphenylacetic acid in the brain, in words ([8]; following the 5 mg/kg dose): significant reductions
dopamine in the brain, in words ([8]; following the 5 mg/kg dose): increases in dopamine
selectivity of action, in words ([8]; lower doses (MAO-B) and higher doses (MAO-A)): selectivity of action against MAO-B at the lower doses and a small degree of MAO-A inhibition occurring at the higher doses
